We go through one compound from US20260256931A1, “CD276 ANTIBODY AND METHODS OF USE THEREOF” (priority 2023, published 2026).

Holding throughout (format): cell-based
The subject of one test is 4T1. Description: In vitro cytotoxicity assay (MTT), 4T1. To be noted: Mus musculus, 4T1, 120 h. How it is done:
(§1) The human and mouse TNBC cells were seeded in 96-well plates with a density of 10,000 cells/well for MDA-MB-468, 1,000 cells/well for MDA-MB-231 and 500 cells/well for 4T1. The free MMAF, mAb-MMAF and mAb-MMAF/IMQ were added into each well to reach the final dosages of 0-300 or 400 nM. Higher concentrations, i.e. 0-20 μM, of free IMQ and mAb-IMQ, were tested. The treated cells were incubated at 37° C. and 5% CO2 for five days and the cell viability was analyzed using MTT Cell Proliferation Assay kit.

The next test relates to MDA-MB-468. The experiment in a line: In vitro cytotoxicity assay (MTT), MDA-MB-468. To be noted: Homo sapiens, 120 h, MDA-MB-468, five days. How it is done:
as §1

The next test has as its system MDA-MB-231. The experiment in a line: In vitro cytotoxicity assay (MTT), MDA-MB-231. To be noted: Homo sapiens, MDA-MB-231, 120 h. How it is done:
as §1

Where a SMILES comes first, the peptide text is derived from it. [ ]: non-standard residue; d: D form. Dolaproine = CO[C@@H]([C@@H]1CCCN1)[C@@H](C)C(=O)O; Dil = CC[C@H](C)[C@H](NC)[C@@H](CC(=O)O)OC; NMeV = CN[C@H](C(=O)O)C(C)C

Consider `CC[C@H](C)[C@@H]([C@@H](CC(=O)N1CCC[C@H]1[C@H](OC)[C@@H](C)C(=O)N[C@@H](Cc1ccccc1)C(=O)O)OC)N(C)C(=O)[C@@H](NC(=O)[C@@H](NC)C(C)C)C(C)C` [MMAF, Monomethyl auristatin F] (H-[NMeV]V[Dil][Dolaproine]F-OH), for which the IC50 in the test on 4T1 was determined as 104 nM; in the test with MDA-MB-468, 143 nM; with MDA-MB-231, 151 nM.

One may read the IC50 as the point on the concentration scale where inhibition reaches its midpoint.
